Here are results for 13 compounds from patent US5414001A, “Antineoplastic pyrrolo[4,3,2-de]quinolin-8(1H)-ones” (American Cyanamid Company, priority 1993, dated 1995).

Data set [1] concerns DDP (Cisplatin resistant ovarian carcinoma cell line) / S (A2780). Description: SRB cytotoxicity ratio DDP/S (cisplatin resistance). Type of data set: cell-based, human.
In data set [2] the test system is HCT15 / SKBR3. Briefly: SRB cytotoxicity ratio HCT15/SKBR3 (topoisomerase resistance). Particulars: 2880 min. Type of data set: cell-based, human.
Data set [3] relates to MIP / SW620. Briefly: SRB cytotoxicity ratio MIP/SW620 (MDR, P-glycoprotein resistance). In kind it is cell-based, human. The note with it: 2880 min.
Data set [4] concerns CaCo2 / CX1. The note with it: human, Caco-2, 48 h.
Protocol: (§1) The cytotoxic activity of the pyrrolo[4,3,2-de]quinolin-8(1H)-ones against a panel of >20 human tumor cell lines is determined using the Sulforhodamine B protein dye-binding colorimetric cytotoxicity assay (SRB) described by Skehan et al. (Journal National Cancer Institute 82:1107-1112, 1990), as modified by Monks et al., (Journal National Cancer Institute 83: 757-766, 1991). […] Positive controls (i.e., etoposide) are included in every experiment. Treatments are for 48 hours, after which cells are fixed in 10% trichloroacetic acid (10% final concentration), washed five times with deionized water and stained with SRB solution (0.4% in glacial acetic acid). Protein-bound stain is solubilized with 0.1 ml tris buffer and the adsorbance values are recorded with a microplate reader. Duplicate plates of cells are fixed with trichloroacetic acid at the time of drug addition to establish To values, as described by Monks et al. (JNCl, 83: 757-766, 1991). The effect of drug treatments over the five-long range of concentrations is calculated using the formula, T--To/C--To, to determine the IC50 values.
(§2) 3) The ratio values for DDP/S; CaCo2/CX1; MIP/SW620, and; HCT15/SKBR3 refer to the IC50 value for resistant cell lines included in the tumor cell panel, divided by the IC50 value for corresponding drug sensitive cell lines. For example, DDP is a Cisplatin resistant ovarian carcinoma cell line, and S is the corresponding parent drug sensitive ovarian carcinoma cell line (A2780). […] CaCo2 is a slow growing non P-glycoprotein multidrug resistant colon carcinoma cell line. MIP is a colon carcinoma cell line that expresses P-glycoprotein and is multidrug resistant; SW620 is a drug sensitive colon carcinoma cell line. HCT15 is a colon carcinoma cell line that is resistant to topoisomerase inhibitors and SKBR3 is a breast carcinoma that is very sensitive to topoisomerase inhibitors.
For data set [5], the system named is panel of >20 human tumor cell lines. Briefly: In vitro tumor panel evaluation, Sulforhodamine B (SRB) cytotoxicity assay. Particulars: for IC50: Homo sapiens. Type of data set: cell-based.
Data set [6] concerns Ovcar3 human ovarian carcinoma. On the set-up: species or system human tumor in Balb/C nu/nu athymic mice. The note with it: in vivo.
Data set [7] deals with CaCo2 / CX1. Briefly: SRB cytotoxicity ratio CaCo2/CX1 (growth kinetics). Particulars: IC50 resistant / IC50 sensitive cell line, 2880 min.
Protocol: as §1, §2
Data set [8] has as its system P388 murine leukemia. The arrangement: species or system murine (mice). The note with it: mouse, in vivo.
[9] abbreviates: human, ddp/s ovarian carcinoma cells, 2880 min.
[10] abbreviates: IC50 resistant / IC50 sensitive cell line, cisplatin resistance, 2880 min.
The mark [11] stands for this setting: IC50 resistant / IC50 sensitive cell line, topoisomerase resistance.
The mark [12] stands for this setting: IC50 resistant / IC50 sensitive cell line, MDR (pglycoprotein) resistance.
Where [13] appears, read: Mean IC50 value for all 20 cell lines, 48 hours, read-out: AVG IC50.
[14] abbreviates: least sensitive cell line, 48 hours, read-out: MAX IC50.
The mark [15] stands for this setting: most sensitive cell line, 48 hours, read-out: MIN IC50.

Values after ≈ are worked out from the molar mass of the structure shown. Where a name gives a salt, the structure may show the parent alone. Read-outs that look alike come from different tables or passages of the source.

`COc1cc([C@@H]2c3cc4c(cc3[C@@H](O[C@@H]3O[C@@H]5CO[C@@H](C)O[C@H]5[C@H](O)[C@H]3O)[C@H]3COC(=O)[C@H]23)OCO4)cc(OC)c1O` [Etoposide, etoposide, reference compound]: in data set [1], the “cross resistance in the cisplatin resistant cell line DDP” value was “cross resistant”. In data set [1] (setting [9]), the “DDP/S IC50 ratio” value was determined as 53.0 and the “IC50 value of DDP higher than the parent cell line” value is on record as 53 fold. Besides, in data set [2] (human, hct15/skbr3 cells), the “HCT15/SKBR3 IC50 ratio” value is on record as 22.3 and the “HCT15 more resistant than SKBR3” value was 22 fold. Further, in data set [3] (human, mip/sw620 cells), the “MIP/SW620 IC50 ratio” value is 1.9. In data set [4], the “CaCO2/CX1 IC50 ratio” value turned out to be 4.2. Further, the IC50 in data set [5] (48 h, read-out: AVG IC50) was 8.7 µg/mL (≈ 14.8 µM). Besides, the concentration for half-maximal inhibition (IC50) in data set [5] (48 h, read-out: MAX IC50) came to 27.9 µg/mL (≈ 47.4 µM). For the same compound, the IC50 in data set [5] (48 h, read-out: MIN IC50) stood at 0.12 µg/mL (≈ 0.204 µM). For the same compound, the “Ovcar3 Min T/C %” value in data set [6] is 62%.

On to `Cn1cc2ccnc3c2c1C(=O)C(N)=C3.O=C(O)C(F)(F)F` [Example 2, 7-amino-1-methyl-pyrrolo[4,3,2-de]quinolin-8(1H)-one trifluoroacetate], for which, in data set [1] (setting [10]), the “DDP/S IC50 ratio” value stood at 1.0. For the same compound, the “HCT15/SKBR3 IC50 ratio” value in data set [2] (setting [11]) was 6.7. Moreover, the “MIP/SW620 IC50 ratio” value in data set [3] (setting [12]) is recorded as 0.9. The IC50 in data set [5] (setting [13]) came to 18 µg/mL; in data set [5] (setting [14]), 25.1 µg/mL; in data set [5] (setting [15]), 2.03 µg/mL. The “CaCO2/CX1 IC50 ratio” value in data set [7] was determined as 0.6.

With `Cn1cc2c3c1C(=O)C(N/C=C/c1ccc(O)cc1)=CC3=NCC2.O=C(O)C(F)(F)F` [Example 5, (E)-7-[[2-(4-hydroxyphenyl)ethenyl]amino]-1-methyl-3,4-dihydropyrrolo[4,3,2-de]quinolin-8(1H)-one trifluoroacetate], the “DDP/S IC50 ratio” value in data set [1] (setting [10]) came to 1.1. In addition, the “HCT15/SKBR3 IC50 ratio” value in data set [2] (setting [11]) worked out at 0.3. For the same compound, the “MIP/SW620 IC50 ratio” value in data set [3] (setting [12]) is 1.1. Also, the results for the IC50 in data set [5] (setting [13]), in data set [5] (setting [14]) and in data set [5] (setting [15]) were 2.3 µg/mL, 3.44 µg/mL and 1.23 µg/mL, respectively. In addition, the “CaCO2/CX1 IC50 ratio” value in data set [7] is listed as 1.5.

Take `CNC1=CC2=[N+](C)CCc3c[nH]c(c32)C1=O` [Example 35, 1,3,4,8-Tetrahydro-5-methyl-7-(methylamino)-8-oxo-pyrrolo[4,3,2-de]quinolinium trifluoroacetate]: in data set [1] (setting [10]), the “DDP/S IC50 ratio” value amounted to 1.0. For the same compound, the “HCT15/SKBR3 IC50 ratio” value in data set [2] (setting [11]) came out at 9.1. Also, the “MIP/SW620 IC50 ratio” value in data set [3] (setting [12]) is given as 20.3. Moreover, the “CaCO2/CX1 IC50 ratio” value in data set [4] was determined as 1.3. In addition, the results for the half-maximal inhibitory concentration (IC50) in data set [5] (setting [13]), in data set [5] (setting [14]) and in data set [5] (setting [15]) were 5.7 µg/mL, 24.4 µg/mL and 1.2 µg/mL, respectively.

On to `CCCCCCCCN(CCCCCCCC)C1=CC2=[N+](C)CCc3c[nH]c(c32)C1=O` [Example 39, 1,3,4,8-Tetrahydro-5-methyl-7-(dioctylamino)-8-oxo-pyrrolo[4,3,2-de]quinolinium trifluoroacetate], for which the “DDP/S IC50 ratio” value in data set [1] (setting [10]) is reported as 1.7. Moreover, in data set [2] (setting [11]), the “HCT15/SKBR3 IC50 ratio” value was 122.0. Further, the “MIP/SW620 IC50 ratio” value in data set [3] (setting [12]) was 9.0. In addition, the “CaCO2/CX1 IC50 ratio” value in data set [4] came to 4.8. Further, the concentration for half-maximal inhibition (IC50) in data set [5] (setting [13]) came out at 0.8 µg/mL; in data set [5] (setting [14]), 2.71 µg/mL; in data set [5] (setting [15]), 0.19 µg/mL.

`C[N+]1=C2C=C(NCc3ccoc3)C(=O)c3[nH]cc(c32)CC1.O=C([O-])C(F)(F)F` [Example 43, 7-[(3-Furanylmethyl)amino]-1,3,4,8-tetrahydro-5-methyl-8-oxo-pyrrolo[4,3,2-de]quinolinium trifluoroacetate]: the “DDP/S IC50 ratio” value in data set [1] (setting [10]) amounted to 1.6. In addition, the “HCT15/SKBR3 IC50 ratio” value in data set [2] (setting [11]) worked out at 78.5. Further, the “MIP/SW620 IC50 ratio” value in data set [3] (setting [12]) came out at 90.8. The “CaCO2/CX1 IC50 ratio” value in data set [4] was found to be 19.8. Moreover, in data set [5] (Mean IC50 value for all 20 cell lines, 48 hours), the “AVG IC50” value came to 6.4 µg/mL. For the same compound, the “MAX IC50” value in data set [5] (least sensitive cell line, 48 hours) was found to be 36.3 µg/mL. Further, in data set [5] (most sensitive cell line, 48 hours), the “MIN IC50” value was 0.27 µg/mL.

Take `C[N+]1=C2C=C(NCc3cccc4ccccc34)C(=O)c3[nH]cc(c32)CC1` [Example 44, 1,3,4,8-Tetrahydro-5-methyl-7-[(1-naphthalenylmethyl)amino]-8-oxo-pyrrolo[4,3,2-de]quinolinium trifluoroacetate]: the “DDP/S IC50 ratio” value in data set [1] (setting [10]) was 11.3. The “HCT15/SKBR3 IC50 ratio” value in data set [2] (setting [11]) was found to be 1140.0. The “MIP/SW620 IC50 ratio” value in data set [3] (setting [12]) amounted to 67.8. In addition, in data set [4], the “CaCO2/CX1 IC50 ratio” value amounted to 32.0. Besides, the IC50 in data set [5] (setting [13]) was 5.6 µg/mL; in data set [5] (setting [14]) it was 27.1 µg/mL; in data set [5] (setting [15]) it was 0.02 µg/mL.

Regarding `C[N+]1=C2C=C(NCc3ccccc3)C(=O)c3[nH]cc(c32)CC1` [Example 46, 1,3,4,8-Tetrahydro-5-methyl-8-oxo-7-[(phenylmethyl)amino]-pyrrolo[4,3,2-de]quinolinium trifluoroacetate], the “DDP/S IC50 ratio” value in data set [1] (setting [10]) is on record as 1.6. Further, the “HCT15/SKBR3 IC50 ratio” value in data set [2] (setting [11]) is 113.0. Besides, the “MIP/SW620 IC50 ratio” value in data set [3] (setting [12]) is 8.3. Besides, the “CaCO2/CX1 IC50 ratio” value in data set [4] is listed as 5.4. Moreover, the 50% inhibitory concentration (IC50) amounted to 7 µg/mL in data set [5] (setting [13]), 22.3 µg/mL in data set [5] (setting [14]) and 0.2 µg/mL in data set [5] (setting [15]).

Take `C[N+]1=C2C=C(NCc3ccc(O)cc3)C(=O)c3[nH]cc(c32)CC1` [Example 49, 1,3,4,8-Tetrahydro-7-[[(4-hydroxyphenyl)methyl]amino]-5-methyl-8-oxo-pyrrolo[4,3,2-de]quinolin-8 (1H)-one trifluoroacetate]: the “DDP/S IC50 ratio” value in data set [1] (setting [10]) came to 1.1. Moreover, the “HCT15/SKBR3 IC50 ratio” value in data set [2] (setting [11]) turned out to be 15.4. In data set [3] (setting [12]), the “MIP/SW620 IC50 ratio” value is 4.2. For the same compound, in data set [4], the “CaCO2/CX1 IC50 ratio” value stood at 1.0. The IC50 in data set [5] (setting [13]) was 3.3 µg/mL; in data set [5] (setting [14]), 13.9 µg/mL; in data set [5] (setting [15]), 0.92 µg/mL.

On to `CN1CCc2cn(C)c3c2C1=CC(=O)C3=O` [Example 52, 1,3,4,5-Tetrahydro-1,5-dimethyl-pyrrolo[4,3,2-de]quinoline-7,8-dione], for which the “DDP/S IC50 ratio” value in data set [1] (setting [10]) is listed as 1.1. Also, the “HCT15/SKBR3 IC50 ratio” value in data set [2] (setting [11]) stood at 2.6. Besides, the “MIP/SW620 IC50 ratio” value in data set [3] (setting [12]) worked out at 1.5. Moreover, the “CaCO2/CX1 IC50 ratio” value in data set [4] stood at 0.8. Besides, the IC50 in data set [5] (setting [13]) was found to be 25 µg/mL (≈ 116 µM); in data set [5] (setting [14]), 50 µg/mL (≈ 231 µM); in data set [5] (setting [15]) it was 12.3 µg/mL (≈ 56.9 µM).

For the compound `C[N+]1=C2C=C(N)C(=O)c3c2c(cn3CCC#N)CC1` [Example 56, 7-Amino-1-(2-cyanoethyl)-1,3,4,8-tetrahydro-5-methyl-8-oxo-pyrrolo[4,3,2-de]quinolinium trifluoroacetate], in data set [1] (setting [10]), the “DDP/S IC50 ratio” value is recorded as 1.0. In addition, the “HCT15/SKBR3 IC50 ratio” value in data set [2] (setting [11]) was determined as 3.1. For the same compound, in data set [3] (setting [12]), the “MIP/SW620 IC50 ratio” value is listed as 2.0. For the same compound, in data set [4], the “CaCO2/CX1 IC50 ratio” value worked out at 1.4. Besides, the figures for the concentration for half-maximal inhibition (IC50) in data set [5] (setting [13]), in data set [5] (setting [14]) and in data set [5] (setting [15]) were 4.7 µg/mL, 21.5 µg/mL and 1.56 µg/mL, respectively.

On to `C[N+]1=C2C=C(NCC(O)c3ccccc3)C(=O)c3[nH]cc(c32)CC1` (stereo not drawn) [Example 58, 1,3,4,8-Tetrahydro-7-[2-hydroxy-2-phenylethyl)amino]-5-methyl-8-oxo-pyrrolo[4,3,2-de]quinolinium trifluoroacetate], for which, in data set [1] (setting [10]), the “DDP/S IC50 ratio” value is reported as 1.5. Also, the “HCT15/SKBR3 IC50 ratio” value in data set [2] (setting [11]) is recorded as 227.0. The “MIP/SW620 IC50 ratio” value in data set [3] (setting [12]) worked out at 167.0. In addition, the “CaCO2/CX1 IC50 ratio” value in data set [4] turned out to be 34.0. Also, the IC50 in data set [5] (setting [13]) was determined as 11 µg/mL; in data set [5] (setting [14]) it was 50 µg/mL; in data set [5] (setting [15]), 0.22 µg/mL.

With `CC[C@]1(O)C[C@H]2CN(CCc3c([nH]c4ccccc34)[C@@](C(=O)OC)(c3cc4c(cc3OC)N(C=O)[C@H]3[C@@](O)(C(=O)OC)[C@H](OC(C)=O)[C@]5(CC)C=CCN6CC[C@]43[C@@H]65)C2)C1` [Vincristine, reference compound], the “P388 ILS %” value in data set [8] is reported as above 91%. Besides, the “Ovcar3 Min T/C %” value in data set [6] amounted to 53%.
